Measured values from US9321790B2, “Pyrimidinone derivatives as antimalarial agents” (SANOFI, priority 2012, dated 2016).
Where two headings read alike, the source gives them in different places.

What was measured:
[1] = system: Plasmodium falciparum (strain NF54); assay: Antimalarial activity test: growth of Plasmodium falciparum in infected human erythrocytes, 3H-hypoxanthine incorporation; type: cell-based; conditions: strain NF54 sensitive to chloroquine, 72 h total incubation
How it was run: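 Chloroquine-sensitive NF54 parasites in human erythrocytes (1.25% hematocrit, 0.15% parasitemia) were grown in hypoxanthine-free RPMI 1640 with HEPES and Albumax II, with compound in twofold serial dilution, at 37 °C under 93% N2/4% CO2/3% O2. After 48 h, 3H-hypoxanthine (0.5 μCi) was added for 24 h. Scintillation counts versus drug-free control gave IC50.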

human PI3Kα = human PI3Kα (Homo sapiens (Human), UniProt P42336); assay: Human PI3Kα activity test (luciferin/luciferase ATP consumption, KinaseGlo); type: biochemical
Sequence of human PI3Kα (P42336 whole entry): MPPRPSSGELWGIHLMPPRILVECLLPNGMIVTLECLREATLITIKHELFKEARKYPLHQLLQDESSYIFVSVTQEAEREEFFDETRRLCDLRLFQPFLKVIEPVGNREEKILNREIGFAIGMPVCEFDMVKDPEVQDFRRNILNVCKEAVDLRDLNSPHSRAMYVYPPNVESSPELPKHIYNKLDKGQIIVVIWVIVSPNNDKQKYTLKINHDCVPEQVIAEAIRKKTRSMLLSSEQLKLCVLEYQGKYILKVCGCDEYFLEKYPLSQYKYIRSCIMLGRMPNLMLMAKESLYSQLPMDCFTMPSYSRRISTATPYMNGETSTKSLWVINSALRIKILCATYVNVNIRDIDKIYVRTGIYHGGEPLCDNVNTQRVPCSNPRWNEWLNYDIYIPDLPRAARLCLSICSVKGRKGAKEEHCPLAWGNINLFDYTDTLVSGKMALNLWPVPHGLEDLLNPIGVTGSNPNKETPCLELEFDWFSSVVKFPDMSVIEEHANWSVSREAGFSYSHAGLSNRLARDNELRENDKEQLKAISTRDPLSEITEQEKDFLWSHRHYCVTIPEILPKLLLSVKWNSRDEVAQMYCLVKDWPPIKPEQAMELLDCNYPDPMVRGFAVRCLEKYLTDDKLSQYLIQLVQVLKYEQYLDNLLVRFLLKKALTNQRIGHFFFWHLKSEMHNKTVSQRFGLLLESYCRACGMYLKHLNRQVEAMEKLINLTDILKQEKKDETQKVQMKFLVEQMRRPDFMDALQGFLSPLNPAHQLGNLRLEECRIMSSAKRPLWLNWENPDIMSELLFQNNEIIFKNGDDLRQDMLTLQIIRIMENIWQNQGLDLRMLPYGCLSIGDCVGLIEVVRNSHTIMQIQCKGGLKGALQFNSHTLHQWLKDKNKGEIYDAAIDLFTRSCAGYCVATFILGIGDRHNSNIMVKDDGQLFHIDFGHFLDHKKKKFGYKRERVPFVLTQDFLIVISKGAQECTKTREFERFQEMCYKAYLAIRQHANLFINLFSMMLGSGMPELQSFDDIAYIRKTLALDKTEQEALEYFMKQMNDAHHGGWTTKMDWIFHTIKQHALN
Sequence of human PI3Kα (P27986 whole entry partner): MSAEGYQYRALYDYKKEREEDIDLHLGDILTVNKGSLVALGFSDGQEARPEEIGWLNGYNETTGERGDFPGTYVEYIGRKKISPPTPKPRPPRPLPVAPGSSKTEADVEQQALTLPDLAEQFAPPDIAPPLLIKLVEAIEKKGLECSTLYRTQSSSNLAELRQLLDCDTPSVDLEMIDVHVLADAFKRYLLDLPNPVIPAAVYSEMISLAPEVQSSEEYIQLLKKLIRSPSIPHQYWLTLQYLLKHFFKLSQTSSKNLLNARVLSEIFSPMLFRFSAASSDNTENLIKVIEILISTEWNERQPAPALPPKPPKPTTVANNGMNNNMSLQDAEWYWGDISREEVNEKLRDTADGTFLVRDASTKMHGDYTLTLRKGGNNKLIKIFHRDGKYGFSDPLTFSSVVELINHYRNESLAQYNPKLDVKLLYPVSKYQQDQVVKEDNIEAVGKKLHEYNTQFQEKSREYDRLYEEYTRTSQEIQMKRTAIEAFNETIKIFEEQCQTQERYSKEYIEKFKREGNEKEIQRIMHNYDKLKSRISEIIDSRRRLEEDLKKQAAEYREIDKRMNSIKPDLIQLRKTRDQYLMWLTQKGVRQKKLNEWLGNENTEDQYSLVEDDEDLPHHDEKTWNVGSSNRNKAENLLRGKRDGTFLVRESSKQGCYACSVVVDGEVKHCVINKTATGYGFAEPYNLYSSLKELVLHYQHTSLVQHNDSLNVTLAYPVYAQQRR
Description: The test uses a luciferin/luciferase system to measure the concentration of ATP and its consumption during the enzymatic reaction.
After 90 minutes, the reaction is quenched by adding 20 μl/well of KinaseGlo reagent (Promega V6713). After 10 minutes in the dark, the luminescence is read using a PHERAStar microplate reader (reading at 0.8 sec/well).

[2] = Plasmodium falciparum, Erythrocyte
[3] = PI3Kα (p110α/p85α), 50 μM PIP2, 2 μM ATP, 90 minutes, read-out: IC50 Human PI3Kα

Row | SMILES | IC50 [1, 2] [nM] | IC50 (human PI3Kα; [3]) [nM] | IC50 (human PI3Kα) [nM] | IC50 [1] [nM]
1 | COc1ncccc1C(=O)CN1c2nc(N3C[C@@H]4C[C@H]3CO4)cc(=O)n2CC[C@H]1C(F)(F)F [Compound 65, (8S)-9-[2-(2-Methoxypyrid-3-yl)-2-oxoethyl]-2-(1S,4S)-2-oxa-5-azabicyclo[2.2.1]hept-5-yl-8-trifluoromethyl-6,7,8,9-tetrahydropyrimido[1,2-a]pyrimidin-4-one] | 21 | > 10000 |  | 
2 | Cn1cncc1C(=O)CN1c2nc(N3C[C@@H]4C[C@H]3CO4)cc(=O)n2CC[C@H]1C(F)(F)F [Compound 66, (8S)-9-[2-(3-Methyl-3H-imidazol-4-yl)-2-oxoethyl]-2-(1S,4S)-2-oxa-5-azabicyclo[2.2.1]hept-5-yl-8-trifluoromethyl-6,7,8,9-tetrahydropyrimido[1,2-a]pyrimidin-4-one] | 73 | > 10000 |  | 
3 | O=C(CN1c2nc(N3C[C@@H]4C[C@H]3CO4)cc(=O)n2CC[C@H]1C(F)(F)F)C1CC1 [Compound 67, (8S)-9-(2-Cyclopropyl-2-oxoethyl)-2-(1S,4S)-2-oxa-5-azabicyclo[2.2.1]hept-5-yl-8-trifluoromethyl-6,7,8,9-tetrahydropyrimido[1,2-a]pyrimidin-4-one] | 43 | 4000 |  | 
4 | O=C(CN1c2nc(N3C[C@@H]4C[C@H]3CO4)cc(=O)n2CC[C@H]1C(F)(F)F)c1ccccn1 [Compound 68, (8S)-2-(1S,4S)-2-oxa-5-azabicyclo[2.2.1]hept-5-yl-9-(2-oxo-2-pyrid-2-ylethyl)-8-trifluoromethyl-6,7,8,9-tetrahydropyrimido[1,2-a]pyrimidin-4-one] | 27 | 6600 |  | 
5 | Cn1nccc1C(=O)CN1c2nc(N3C[C@@H]4C[C@H]3CO4)cc(=O)n2CC[C@H]1C(F)(F)F [Compound 69, (8S)-9-[2-(2-methyl-2H-pyrazol-3-yl)-2-oxoethyl]-2-(1S,4S)-2-oxa-5-azabicyclo[2.2.1]hept-5-yl-8-trifluoromethyl-6,7,8,9-tetrahydropyrimido[1,2-a]pyrimidin-4-one] | 96 | > 10000 |  | 
6 | CN(C)C(=O)COc1ccc(CCN2c3nc(N4CC5CCC(C4)O5)cc(=O)n3C[C@@]2(C)C(F)(F)F)cc1 [Compound 70, N, N-dimethyl-2-(4-{2-[(S)-2-methyl-7-(8-oxa-3-azabicyclo[3.2.1]oct-3-yl)-5-oxo-2-trifluoromethyl-2,3-dihydro-5H-imidazo[1,2-a]pyrimidin-1-yl]ethyl}phenoxy)acetamide] | 12 | 1000 |  | 
7 | COc1cc(F)ccc1[C@H](O)CN1c2nc(N3CC4CCC(C3)O4)cc(=O)n2CC[C@H]1C(F)(F)F [Compound 71, (8S)-9-[(S)-2-(4-fluoro-2-methoxyphenyl)-2-hydroxyethyl]-2-(8-oxa-3-azabicyclo[3.2.1]oct-3-yl)-8-trifluoromethyl-6,7,8,9-tetrahydropyrimido[1,2-a]pyrimidin-4-one] | 23 | 810 |  | 
8 | C[C@@]1(C(F)(F)F)Cn2c(nc(N3CC4CCC(C3)O4)cc2=O)N1CCc1ccc(O)cc1 [Compound 72, (S)-1-[2-(4-hydroxyphenyl)ethyl]-2-methyl-7-(8-oxa-3-azabicyclo[3.2.1]oct-3-yl)-2-trifluoromethyl-2,3-dihydro-1H-imidazo[1,2-a]pyrimidin-5-one] | 37 | 730 |  | 
9 | O=C(CN1c2nc(N3CC4CCC(C3)O4)cc(=O)n2CC[C@H]1C(F)(F)F)c1ccccc1 [Compound 73, (8S)-2-(8-Oxa-3-azabicyclo[3.2.1]oct-3-yl)-9-(2-oxo-2-phenylethyl)-8-trifluoromethyl-6,7,8,9-tetrahydropyrimido[1,2-a]pyrimidin-4-one] | 44 | 2500 |  | 
10 | CN(C)CCOc1ccc(CCN2c3nc(N4CC5CCC(C4)O5)cc(=O)n3C[C@@]2(C)C(F)(F)F)cc1 [Compound 74, (S)-1-{2-[4-(2-dimethylaminoethoxy)phenyl]ethyl}-2-methyl-7-(8-oxa-3-azabicyclo[3.2.1]oct-3-yl)-2-trifluoromethyl-2,3-dihydro-1H-imidazo[1,2-a]pyrimidin-5-one] | 68 | 820 |  | 
11 | O=C(CN1c2nc(N3CC4CCC(C3)O4)cc(=O)n2CC[C@H]1C(F)(F)F)c1ccncc1 [Compound 75, (8S)-2-(8-oxa-3-azabicyclo[3.2.1]oct-3-yl)-9-(2-oxo-2-pyrid-4-ylethyl)-8-trifluoromethyl-6,7,8,9-tetrahydropyrimido[1,2-a]pyrimidin-4-one] | 80 | ≥ 10000 |  | 
12 | COc1ccc(CCN2c3nc(N4CC5CCC(C4)O5)cc(=O)n3C[C@@]2(C)C(F)(F)F)cc1 [Compound 76, (S)-1-[2-(4-Methoxyphenyl)ethyl]-2-methyl-7-(8-oxa-3-azabicyclo[3.2.1]oct-3-yl)-2-trifluoromethyl-2,3-dihydro-1H-imidazo[1,2-a]pyrimidin-5-one] | 93 | 950 |  | 
13 | C[C@@]1(C(F)(F)F)Cn2c(nc(N3CC4CCC(C3)O4)cc2=O)N1CCCc1ccccc1 [Compound 77, (S)-2-Methyl-7-(8-oxa-3-azabicyclo[3.2.1]oct-3-yl)-1-(3-phenylpropyl)-2-trifluoromethyl-2,3-dihydro-1H-imidazo[1,2-a]pyrimidin-5-one] | 160 | 820 |  | 
14 | CN(C)CCCOc1ccc(CCN2c3nc(N4CC5CCC(C4)O5)cc(=O)n3C[C@@]2(C)C(F)(F)F)cc1 [Compound 78, (S)-1-{2-[4-(3-Dimethylaminopropoxyl)phenyl]ethyl}-2-methyl-7-(8-oxa-3-azabicyclo[3.2.1]oct-3-yl)-2-trifluoromethyl-2,3-dihydro-1H-imidazo[1,2-a]pyrimidin-5-one] | 360 | 250 |  | 
15 | C[C@@]1(C(F)(F)F)Cn2c(nc(N3CC4CCC(C3)O4)cc2=O)N1C[C@@H](O)c1ccccc1 [Compound 79, (2S)-1-((S)-2-Hydroxy-2-phenylethyl)-2-methyl-7-(8-oxa-3-azabicyclo[3.2.1]oct-3-yl)-2-trifluoromethyl-2,3-dihydro-1H-imidazo[1,2-a]pyrimidin-5-one] | 640 | 1600 |  | 
16 | O=c1cc(N2CC3CCC(C2)O3)nc2n1CC[C@@H](C(F)(F)F)N2C[C@@H](O)c1cc2ccccc2s1 [Compound 82, (8S)-9-((R)-2-Benzo[b]thiophen-2-yl-2-hydroxyethyl)-2-(8-oxa-3-azabicyclo[3.2.1]oct-3-yl)-8-trifluoromethyl-6,7,8,9-tetrahydropyrimido[1,2-a]pyrimidin-4-one] | 9 | 340 |  | 
17 | O=c1cc(N2CC3CCC(C2)O3)nc2n1CC[C@@H](C(F)(F)F)N2CCc1ccc(O)cc1 [Compound 83, (8S)-9-[2-(4-Hydroxyphenyl)ethyl]-2-(8-oxa-3-azabicyclo[3.2.1]oct-3-yl)-8-trifluoromethyl-6,7,8,9-tetrahydropyrimido[1,2-a]pyrimidin-4-one] | 10 | 190 |  | 
18 | O=c1cc(N2CC3CCC(C2)O3)nc2n1CC[C@@H](C(F)(F)F)N2CCCc1ccccc1 [Compound 84, (8S)-2-(8-oxa-3-azabicyclo[3.2.1]oct-3-yl)-9-(3-phenylpropyl)-8-trifluoromethyl-6,7,8,9-tetrahydropyrimido[1,2-a]pyrimidin-4-one] | 110 | 200 |  | 
19 | O=C(CN1c2nc(N3C4CCC3COC4)cc(=O)n2CC[C@H]1C(F)(F)F)c1cccnc1 [Compound 85, (8S)-2-(3-Oxa-8-azabicyclo[3.2.1]oct-8-yl)-9-(2-oxo-2-pyrid-3-ylethyl)-8-trifluoromethyl-6,7,8,9-tetrahydropyrimido[1,2-a]pyrimidin-4-one] | 150 |  | > 10000 | 
20 | O=c1cc(N2CC3CCC(C2)O3)nc2n1CC[C@@H](C(F)(F)F)N2Cc1ccn(C(F)F)n1 [Compound 86, (8S)-9-(1-Difluoromethyl-1H-pyrazol-3-ylmethyl)-2-(8-oxa-3-azabicyclo[3.2.1]oct-3-yl)-8-trifluoromethyl-6,7,8,9-tetrahydropyrimido[1,2-a]pyrimidin-4-one] | 170 | 7300 |  | 
21 | O=C(CN1c2nc(N3CC4CCC(C3)O4)cc(=O)n2CC[C@H]1C(F)(F)F)c1ccccn1 [Compound 88, (8S)-2-(8-Oxa-3-azabicyclo[3.2.1]oct-3-yl)-9-(2-oxo-2-pyrid-2-ylethyl)-8-trifluoromethyl-6,7,8,9-tetrahydropyrimido[1,2-a]pyrimidin-4-one] | 140 | 1300 |  | 
22 | CC(=O)N1CCC(CCN2c3nc(N4C[C@@H]5C[C@H]4CO5)cc(=O)n3CC[C@H]2C(F)(F)F)CC1 [Compound 89, (S)-9-[2-(1-Acetylpiperid-4-yl)ethyl]-2-(1S,4S)-2-oxa-5-azabicyclo[2.2.1]hept-5-yl-8-trifluoromethyl-6,7,8,9-tetrahydropyrimido[1,2-a]pyrimidin-4-one] | 3.4 | 2800 |  | 
23 | O=CN1CCC(CCN2c3nc(N4C[C@@H]5C[C@H]4CO5)cc(=O)n3CC[C@H]2C(F)(F)F)CC1 [Compound 90, 4-[2-((2S)-8-(1S,4S)-2-oxa-5-azabicyclo[2.2.1]hept-5-yl-6-oxo-2-trifluoromethyl-3,4-dihydro-2H,6H-pyrimido[1,2-a]pyrimidin-1-yl)ethyl]piperidine-1-carbaldehyde] | 2 | 2400 |  | 
24 | CCOC(=O)N1CCC(C(=O)CN2c3nc(N4C[C@@H]5C[C@H]4CO5)cc(=O)n3CC[C@H]2C(F)(F)F)CC1 [Compound 91, 4-[2-((S)-8-(1S,4S)-2-Oxa-5-azabicyclo[2.2.1]hept-5-yl-6-oxo-2-trifluoromethyl-3,4-dihydro-2H,6H-pyrimido[1,2-a]pyrimidin-1-yl)acetyl]piperidine-1-carboxylic acid ethyl ester] |  | > 10000 |  | 25
